ChEMBL document CHEMBL1151947, “Synthesis, potency, and in vivo evaluation of 2-piperazin-1-ylquinoline analogues as dual serotonin reuptake inhibitors and serotonin 5-HT1A receptor antagonists” (J Med Chem, 2009)

Columns and labels:
[1] = biological target: T1, 5-hydroxytryptamine receptor 1A (Homo sapiens) (UniProt P08908); experiment: Antagonist activity at human 5HT1A receptor expressed in CHO cells assessed as inhibition of [35S]GTPgammaS binding relative to control; type: functional, cell-based
T1 sequence (whole entry): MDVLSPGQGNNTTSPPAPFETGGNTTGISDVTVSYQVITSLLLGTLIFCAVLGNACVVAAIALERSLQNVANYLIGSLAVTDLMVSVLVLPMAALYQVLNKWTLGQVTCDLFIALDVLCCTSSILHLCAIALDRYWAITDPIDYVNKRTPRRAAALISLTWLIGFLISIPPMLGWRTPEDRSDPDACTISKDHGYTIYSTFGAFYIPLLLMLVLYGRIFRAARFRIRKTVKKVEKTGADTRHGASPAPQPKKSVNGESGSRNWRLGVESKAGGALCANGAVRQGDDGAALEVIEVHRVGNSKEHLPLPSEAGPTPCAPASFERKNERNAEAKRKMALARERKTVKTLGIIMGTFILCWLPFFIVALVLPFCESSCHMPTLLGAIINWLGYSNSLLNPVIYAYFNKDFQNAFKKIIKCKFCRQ

D(2) dopamine receptor = D(2) dopamine receptor (Homo sapiens, UniProt P14416); experiment: Displacement of [3H]spiperone from human dopamine D2 receptor expressed in CHO cells; type: cell-based
D(4) dopamine receptor = biological target: T2, D(4) dopamine receptor (Homo sapiens, UniProt P21917); experiment: Displacement of [3H]spiperone from human dopamine D4 receptor expressed in CHO cells; type: cell-based
T2 sequence (P21917 whole entry): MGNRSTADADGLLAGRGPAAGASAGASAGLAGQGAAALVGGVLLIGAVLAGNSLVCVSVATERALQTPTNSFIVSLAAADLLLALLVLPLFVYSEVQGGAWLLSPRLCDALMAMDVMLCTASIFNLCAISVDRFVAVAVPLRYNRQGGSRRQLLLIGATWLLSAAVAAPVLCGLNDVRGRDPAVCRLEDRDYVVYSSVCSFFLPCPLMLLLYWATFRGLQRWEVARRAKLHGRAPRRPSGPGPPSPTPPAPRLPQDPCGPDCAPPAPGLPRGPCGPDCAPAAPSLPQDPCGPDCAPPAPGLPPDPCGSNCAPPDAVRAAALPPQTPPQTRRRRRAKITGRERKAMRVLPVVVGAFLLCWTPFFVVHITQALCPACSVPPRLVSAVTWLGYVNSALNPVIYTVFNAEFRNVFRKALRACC

[2] = Elimination half life in rat at 1 mg/kg, iv; type: ADME, organism-based; set-up: dose 1 mg/kg, route intravenous; settings: in vivo, read-out: beta t1/2 (converted)
Rattus norvegicus [3] = experiment: AUC in rat at 1 mg/kg, iv; type: ADME, organism-based, Plasma; set-up: dose 1 mg/kg, route intravenous; settings: in vivo
[4] = Cmax in rat at 3 mg/kg, po; type: ADME, organism-based; set-up: dose 3 mg/kg, route oral; settings: in vivo
[5] = Tmax in rat at 3 mg/kg, po; type: ADME, organism-based; set-up: dose 3 mg/kg, route oral; settings: in vivo
[6] = AUC in rat at 3 mg/kg, po; type: ADME, organism-based; set-up: dose 3 mg/kg, route oral; settings: plasma
[7] = Oral bioavailability in rat at 3 mg/kg; type: ADME, organism-based; settings: in vivo
[8] = Cmax in rat at 10 mg/kg, po; type: ADME, organism-based; set-up: dose 10 mg/kg, route oral; settings: in vivo
[9] = Tmax in rat at 10 mg/kg, po; type: ADME, organism-based; set-up: dose 10 mg/kg, route oral; settings: in vivo
[10] = Oral bioavailability in rat at 10 mg/kg; type: ADME, organism-based; settings: in vivo
Cytochrome P450 2D6 = Cytochrome P450 2D6 (Homo sapiens, UniProt P10635); experiment: Inhibition of CYP2D6 in human liver microsomes upto100 uM; type: ADME, Microsome
Cytochrome P450 2C9 = Cytochrome P450 2C9 (Homo sapiens, UniProt P11712); experiment: Inhibition of CYP2C9 in human liver microsomes; type: ADME, Microsome
Cytochrome P450 2C8 = biological target: T3, Cytochrome P450 2C8 (Homo sapiens, UniProt P10632); experiment: Inhibition of CYP2C8 in human liver microsomes; type: ADME, Microsome
T3 sequence (P10632 whole entry): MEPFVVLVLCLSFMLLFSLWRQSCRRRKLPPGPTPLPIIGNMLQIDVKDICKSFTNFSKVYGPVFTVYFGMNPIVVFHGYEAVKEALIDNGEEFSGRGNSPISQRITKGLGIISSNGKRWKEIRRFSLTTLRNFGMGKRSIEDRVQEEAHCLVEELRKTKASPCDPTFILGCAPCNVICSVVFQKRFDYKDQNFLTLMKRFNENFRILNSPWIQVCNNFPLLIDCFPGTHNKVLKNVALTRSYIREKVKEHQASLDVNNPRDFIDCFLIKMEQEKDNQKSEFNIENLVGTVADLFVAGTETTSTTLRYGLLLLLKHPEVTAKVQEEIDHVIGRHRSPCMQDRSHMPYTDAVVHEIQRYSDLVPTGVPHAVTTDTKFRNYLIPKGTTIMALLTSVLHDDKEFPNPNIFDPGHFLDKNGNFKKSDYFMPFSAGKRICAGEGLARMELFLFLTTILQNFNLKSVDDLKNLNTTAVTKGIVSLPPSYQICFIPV

Cytochrome P450 2C19 = Cytochrome P450 2C19 (Homo sapiens, UniProt P33261); experiment: Inhibition of CYP2C19 in human liver microsomes; type: ADME, Microsome
Rattus norvegicus [11] = experiment: Antidepressant like activity in sc dosed rat resident-intruder model assessed as effect on total behavior score administered 30 mins prior to test; type: functional; settings: read-out: ID50 (the source's name)

D(2) dopamine receptor, sequence (P14416 whole entry): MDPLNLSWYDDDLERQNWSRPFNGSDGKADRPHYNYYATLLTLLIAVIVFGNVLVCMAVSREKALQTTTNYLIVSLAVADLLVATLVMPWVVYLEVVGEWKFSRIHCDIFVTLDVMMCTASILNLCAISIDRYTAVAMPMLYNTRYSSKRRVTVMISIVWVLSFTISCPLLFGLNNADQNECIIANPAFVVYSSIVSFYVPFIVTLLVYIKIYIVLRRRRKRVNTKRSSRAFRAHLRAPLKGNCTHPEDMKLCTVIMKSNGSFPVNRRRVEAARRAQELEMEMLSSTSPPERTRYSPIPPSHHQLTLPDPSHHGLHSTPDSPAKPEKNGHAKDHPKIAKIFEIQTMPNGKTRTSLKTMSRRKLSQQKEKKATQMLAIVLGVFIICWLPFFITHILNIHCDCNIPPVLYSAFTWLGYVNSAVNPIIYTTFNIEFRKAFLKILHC
Cytochrome P450 2C9, sequence (P11712 whole entry): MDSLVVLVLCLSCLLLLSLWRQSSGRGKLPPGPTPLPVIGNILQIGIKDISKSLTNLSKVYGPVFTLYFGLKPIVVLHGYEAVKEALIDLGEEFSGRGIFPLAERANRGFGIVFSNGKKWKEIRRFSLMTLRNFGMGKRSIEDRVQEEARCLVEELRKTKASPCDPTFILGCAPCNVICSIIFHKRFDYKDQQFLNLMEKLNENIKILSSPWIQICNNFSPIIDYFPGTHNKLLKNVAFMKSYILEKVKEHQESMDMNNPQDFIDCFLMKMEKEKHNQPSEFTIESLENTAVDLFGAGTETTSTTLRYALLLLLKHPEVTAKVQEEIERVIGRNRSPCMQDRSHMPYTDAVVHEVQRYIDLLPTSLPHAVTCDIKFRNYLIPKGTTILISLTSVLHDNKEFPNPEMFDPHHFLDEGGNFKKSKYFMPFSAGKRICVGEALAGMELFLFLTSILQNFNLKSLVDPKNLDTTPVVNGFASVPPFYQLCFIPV
Cytochrome P450 2D6, sequence (P10635 whole entry): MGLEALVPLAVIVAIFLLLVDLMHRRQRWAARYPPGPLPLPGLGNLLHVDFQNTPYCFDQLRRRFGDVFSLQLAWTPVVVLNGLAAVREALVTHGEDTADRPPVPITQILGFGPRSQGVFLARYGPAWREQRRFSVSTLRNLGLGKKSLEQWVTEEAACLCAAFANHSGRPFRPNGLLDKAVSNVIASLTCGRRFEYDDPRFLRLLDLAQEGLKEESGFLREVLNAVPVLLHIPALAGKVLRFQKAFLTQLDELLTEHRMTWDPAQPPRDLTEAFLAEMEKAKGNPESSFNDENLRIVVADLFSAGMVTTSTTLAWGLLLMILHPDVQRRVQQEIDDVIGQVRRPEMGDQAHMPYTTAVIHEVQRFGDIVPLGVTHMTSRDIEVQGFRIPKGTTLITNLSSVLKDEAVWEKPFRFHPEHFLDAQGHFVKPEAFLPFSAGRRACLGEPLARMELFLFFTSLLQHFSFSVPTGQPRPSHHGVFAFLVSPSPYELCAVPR
Cytochrome P450 2C19, sequence (P33261 whole entry): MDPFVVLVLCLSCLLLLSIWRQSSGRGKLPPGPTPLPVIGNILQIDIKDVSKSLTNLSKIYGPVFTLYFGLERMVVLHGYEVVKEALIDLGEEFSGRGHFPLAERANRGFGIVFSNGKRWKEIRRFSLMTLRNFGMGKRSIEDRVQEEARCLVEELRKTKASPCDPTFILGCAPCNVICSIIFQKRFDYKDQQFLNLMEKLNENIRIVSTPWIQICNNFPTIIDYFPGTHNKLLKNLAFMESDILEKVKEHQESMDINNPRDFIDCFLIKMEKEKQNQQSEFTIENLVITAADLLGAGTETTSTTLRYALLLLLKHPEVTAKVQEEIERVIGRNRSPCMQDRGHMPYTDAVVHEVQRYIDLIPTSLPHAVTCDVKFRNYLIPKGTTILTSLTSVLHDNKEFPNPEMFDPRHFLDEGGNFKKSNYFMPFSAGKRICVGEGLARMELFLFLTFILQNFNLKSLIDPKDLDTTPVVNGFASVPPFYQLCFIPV

Imax [1]: 88.6%
Ki (D(2) dopamine receptor): 1310 nM
Ki (D(4) dopamine receptor): 1420 nM
half-life [2]: 240 min
AUC (Rattus norvegicus [3]): 1268 ng·h/mL
Cmax [4]: 456 ng/mL
Tmax [5]: 1.3 h
AUC [6]: 2320 ng·h/mL
bioavailability [7]: 61%
Cmax [8]: 815 ng/mL
Tmax [9]: 1 h
bioavailability [10]: 36%
inhibition (INH) (Cytochrome P450 2D6): Not Active
IC50 (Cytochrome P450 2C9): 358 µM
IC50 (Cytochrome P450 2C8): 29 µM
IC50 (Cytochrome P450 2C19): 98 µM
Structure (SMILES): Cc1ccc2c3c(ccc2n1)OC[C@H](CN1CCN(c2ccc4cc(C#N)ccc4n2)CC1)O3
ED50 (Rattus norvegicus [11]): > 30 mg/kg
